Results taken from PubChem BioAssay (NCI).
Where “and” joins values, the source holds several entries; their conditions need not be identical. Identical values can stand only once.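 Five compound concentrations were applied to cells in 96-well plates for 48 hours; endpoints were derived by simple linear interpolation of the resulting dose-response curve. GI50 marks 50% less growth. The concentration for full growth arrest is given as TGI.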

Legend:
Test in all cases: NCI tumour cell line growth inhibition, 48 h
OVCAR-3 ovarian = system: OVCAR-3 ovarian
SNB-75 CNS = system: SNB-75 CNS
KM12 colon = system: KM12 colon
NCI-H23 lung = system: NCI-H23 lung
UACC-62 melanoma = system: UACC-62 melanoma
IGROV1 ovarian = system: IGROV1 ovarian
U251 CNS = system: U251 CNS
ACHN renal = system: ACHN renal
HCT-15 colon = system: HCT-15 colon

SMILES | GI50 (OVCAR-3 ovarian) | TGI (OVCAR-3 ovarian) | GI50 (SNB-75 CNS) | TGI (SNB-75 CNS) | GI50 (KM12 colon) | TGI (KM12 colon) | GI50 (NCI-H23 lung) | TGI (NCI-H23 lung) | GI50 (UACC-62 melanoma) | TGI (UACC-62 melanoma) | GI50 (IGROV1 ovarian) | TGI (IGROV1 ovarian) | GI50 (U251 CNS) | TGI (U251 CNS) | GI50 (ACHN renal) | TGI (ACHN renal) | GI50 (HCT-15 colon) | TGI (HCT-15 colon)
O=C(N[C@@H]1CCCc2ccccc21)[C@H](CCC(=O)N1CCN(C2CCCCC2)CC1)N1C(=O)[C@@H](N2C(=O)OC[C@@H]2c2ccccc2)[C@H]1/C=C/c1ccccc1 | 1.72 µM | 3.81 µM | 1.32 µM | 4.19 µM | 2.62 µM | 11.6 µM | 3.7 µM | 19.7 µM | 1.86 µM | 3.93 µM | 2.44 µM | 41.3 µM | 2.2 µM | 5.42 µM | 2.78 µM | 22.1 µM | 2.97 µM | 12.3 µM
O=C1c2ccccc2-c2cc3ccccc3c(=O)n21 | – | > 100 µM | – | > 100 µM | – | > 100 µM | – | > 100 µM | – | > 100 µM | – | > 100 µM | – | – | – | > 100 µM | – | > 100 µM
CCOC(=O)/C=C1\Nc2ccccc2C(c2ccccc2)=NC1OC(C)=O (centres undefined) | – | > 100 µM | – | > 100 µM | – | > 100 µM | – | > 100 µM | – | > 100 µM | – | > 100 µM | – | > 100 µM | – | > 100 µM | – | > 100 µM
c1ccc(SCCCC(Sc2ccccc2)Sc2ccccc2)cc1 | – | > 100 µM | – | > 100 µM | – | > 100 µM | – | > 100 µM | – | > 100 µM | – | > 100 µM | – | > 100 µM | – | > 100 µM | – | > 100 µM
CN1CC2(CCCCC2)C(O)C12C=CCCC2 (centres undefined) | – | > 100 µM | – | > 100 µM | – | > 100 µM | – | > 100 µM | – | > 100 µM | – | > 100 µM | – | > 100 µM | – | – | – | > 100 µM
CC(=O)[CH-]C(=O)c1ccccc1.CC(=O)[CH-]C(=O)c1ccccc1.[O]=[U+2]=[O] | 88.2 µM | > 100 µM | 23 µM | 98.7 µM | 3.67 µM | 9.83 µM | 46.9 µM | > 100 µM | 33.1 µM | > 100 µM | 55 µM | > 100 µM | 35.5 µM | > 100 µM | 33.6 µM | > 100 µM | 35.1 µM | > 100 µM
COc1ccccc1C(=O)c1cnc(NC2CCN(S(C)(=O)=O)CC2)nc1N | 9.15 µM | > 25 µM | 7.57 µM | > 25 µM | 5.74 µM | > 25 µM | 5.71 µM | > 25 µM | 6.68 µM | > 25 µM | 8.05 µM | > 25 µM | 4.06 µM | > 25 µM | 4.68 µM | > 25 µM | 6.28 µM | > 25 µM
COc1c(O)c(OC)c(C(=O)/C=C/c2ccccc2)c(O)c1OC | – | 51.3 µM | – | > 100 µM | – | > 100 µM | – | – | – | – | – | > 100 µM | – | > 100 µM | – | 58.1 µM | – | > 100 µM
O=C(/C=C/N1CCN(c2cccc(C(F)(F)F)c2)CC1)c1ccc(Cl)cc1Cl | 2.44 µM | 19.3 µM | – | – | 28.1 µM | 75.9 µM | 23.2 µM | 75.3 µM | 21.4 µM | 41.8 µM | 30 µM | 58.2 µM | 26.1 µM | 59.8 µM | 23.4 µM | 46.9 µM | 26.8 µM | 53.9 µM
Cn1c(=O)n(-c2ccc(C(C)(C)C#N)cc2)c2c3cc(-c4cnc5ccccc5c4)ccc3ncc21 | < 0.01 µM and 0.00609 µM and 0.0101 µM | – | < 0.001 µM | 0.0464 µM and 0.0263 µM | 0.0134 µM and 0.00683 µM and 0.0153 µM | 1.28 µM and > 10 µM | 0.0169 µM and 0.00838 µM and < 0.0127 µM | 15.9 µM and > 10 µM and > 100 µM | 0.0112 µM and 0.00494 µM and < 0.01 µM | 0.0809 µM and 0.0513 µM and 0.0445 µM | < 0.01 µM and 0.00363 µM | 0.0258 µM and 0.0381 µM | < 0.0117 µM and 0.00599 µM and < 0.01 µM | 10.4 µM and > 10 µM and > 100 µM | < 0.0121 µM and 0.00573 µM and < 0.01 µM | > 100 µM | < 0.01 µM and 0.00522 µM | > 100 µM
C/C(=N\N(C)C)C(CN(C)C)C(c1ccccc1)c1c(O)c2ccccc2oc1=O (centres undefined) | – | > 100 µM | – | > 100 µM | – | > 100 µM | – | > 100 µM | – | > 100 µM | – | > 100 µM | – | > 100 µM | – | > 100 µM | – | > 100 µM
O=C1OC(c2ccc(O)cc2)(c2ccc(O)cc2)c2cccc3cccc1c23 | 3.53 µM | 19.9 µM | 9.97 µM | 27.1 µM | 10.5 µM | 25.2 µM | 17.8 µM | 37.2 µM | 11.3 µM | 25.7 µM | 17.6 µM | 42.7 µM | 15.6 µM | 30.3 µM | 14.3 µM | 27.9 µM | 13.6 µM | 34.3 µM
CCCC/C(=N\N=C(N)N)c1ccc(F)cc1 | 2.9 µM | 9.5 µM | 2.36 µM | 12.5 µM | 2.79 µM | 14 µM | 3.34 µM | 17.1 µM | 3.14 µM | 14.8 µM | 5.06 µM | 20.9 µM | 2.36 µM | 10.2 µM | 5.33 µM | 17.5 µM | 2.49 µM | 14.2 µM
COc1ccc2c(c1O)[C@@]13C=C(O)C(=O)C=C1[C@@H](C2)N(C)CC3 | – | > 100 µM | – | > 100 µM | – | > 100 µM | – | > 100 µM | – | > 100 µM | – | > 100 µM | – | > 100 µM | – | > 100 µM | – | > 100 µM
COc1cc[nH]c1/C=C1\C(=O)Nc2ccc(F)c(C#CC3(O)CCOCC3)c21 | 0.911 µM | 2.25 µM | 0.338 µM | 1.94 µM | 0.0104 µM | 1.92 µM | 0.609 µM | 2.61 µM | 0.375 µM | 0.929 µM | 0.86 µM | > 7.18 µM | 0.519 µM | 5.43 µM | 0.487 µM | > 25 µM | 0.481 µM | > 15.3 µM
COc1cc(C2C3=C(COC3=O)N(CCO)c3cc4c(cc32)CCC4)cc(OC)c1O (centres undefined) | 0.0703 µM | 0.184 µM | – | – | 0.121 µM | 5.52 µM | 0.402 µM | > 32.5 µM | 0.134 µM | > 32.5 µM | 0.159 µM | 11.4 µM | 0.145 µM | > 32.5 µM | 0.706 µM | > 32.5 µM | 1.09 µM | > 32.5 µM
COc1ccc2nc3ccc(OC)cc3c(SCCCN)c2c1 | 2.73 µM | 6.88 µM | 13 µM | 27.9 µM | 4.52 µM | 20.5 µM | 5.37 µM | 15.4 µM | 12 µM | 39.4 µM | 8.46 µM | 27.2 µM | 9.09 µM | > 67.3 µM | 4.72 µM | 19.5 µM | 3.17 µM | 20.2 µM
